From patent publication US5710164A, “Diheterocyclic styryl nitriles” (American Home Products Corporation, priority 1995, dated 1998) come the findings set out here.

Where two headings read alike, the source gives them in different places.

The test system of data set [1] is porcine aortic smooth muscle cells. The data set is described as follows: inhibition of smooth muscle cell proliferation (3H thymidine, serum or PDGF stimulated). Type of data set: cell-based. The conditions noted are these: Sus scrofa, 24-36 h at 37° C. The procedure: The ability of the compounds of the present invention to inhibit smooth muscle cell proliferation was established using isolated porcine aortic smooth muscle cells in a modification of the procedure of Castellot et al. J. Biol. Chem 257(19) 11256 (1982), as follows:
Fresh porcine aortas, scrupulously cleansed of fatty tissue, are rinsed in sterile phosphate-buffered saline with 2% antibiotic-antimycotic (100×) liquid (10,000 units of penicillin (base), 10,000 μg of streptomycin (base), and 25 μg of amphotericin B/mL utilizing penicillin G (sodium salt), streptomycin sulfate, and amphotericin B as Fungizone® in 0.85% saline, available from Gibco Laboratories, Grand Island Biological Co., Grand Island, N.Y.). The tissue is then digested in 10-15 mL of an enzyme solution containing collagenase type I, 165 U/mL; elastase type III, 15 U/mL; BSA, 2 mg/mL; and soybean trypsin inhibitor, 0.375 mg/mL, followed by incubation at 37° C. under 5% CO2 atmosphere for 10 to 15 minutes. After this treatment, the outer surface adventitia is removed by peeling with a forceps. The aorta is then longitudinally cut and laid open and the endothelial layer is removed by scraping.
The medial layer of cells is rinsed in the enzyme solution, and placed in a new 100 mm dish with 10 mL of enzyme solution. The medial layer of cells is minced using a fine pair of scissors and digested for 2-3 hours at 37° C. in 30 mL of fresh enzyme solution. After digestion, the medial tissue is homogenized using a sterile Pasteur pipette with a fire polished tip or an Eppendorf pipetter with a 200-1000 μL sterile pipette tip. The suspension is then centrifuged for 10 minutes at 8000 rpm and the pellet is suspended in 4-6 mL of fresh enzyme solution and plated onto 4-6 100 mm flasks with vented caps. The cells are then allowed to grow to confluence and split using 0.25% trypsin. The cells are evaluated for purity and overall quality using antibody to SMC actin.
The cells are assayed in early passage (generally passage 3-7) at sub-confluent conditions. Cultures are grown in 16 mm (24 well) multi-well culture dishes in media 199 supplemented with 10% fetal bovine serum and 2% antibiotic/antimycotic. At subconfluence, the cells are placed in a defined serum free, lymphocyte medium (AIM-V; Gibco) for 24-48 hours prior to initiating the experimental protocol.
The standard test procedure is initiated by addition of the test compound, ^3 H thymidine and serum or a specific growth factor to the serum deprived synchronized cells. Growth factor and serum stimulations are optimized for each cell type. The test compounds are added to each well at 50 fold dilution (20 μL/well) and the plates are incubated for 24-36 hours at 37° C. in 5% CO2 atmosphere. Test compounds are dissolved in 50% ethanol and assayed at 1, 10, and 100 μM. As a control, RG 50872 (Bilder, G. A.; et al., Am. J. Cell Physiol., 1991; 260: C721) is routinely assayed under the conditions of each cell preparation at a concentration of 5 μM.
At the completion of the experiment, the plates are placed on ice, washed three times with ice cold PBS and incubated in ice cold 10% trichloroacetic acid (TCA) for 30 minutes to remove acid soluble proteins. Each solution is transferred to a scintillation vial containing 0.4N HCl (500 μL/vial to neutralize NaOH) and each well is rinsed two times with water (500 μL) for a total volume of 2 mL/vial.
Data is quantitated by subjecting the vials to a scintillation counter, in triplicate, for both control and experimental samples. Control (100%) data is obtained from maximally stimulated cells, as the result of growth factor or serum stimulation. Experimental data is obtained from cells maximally stimulated with growth factor or serum and treated with a test compound. (The platelet-derived growth factor used in the assay was human recombinant PDGF-AB purchased from Upstate Biotechnology Inc., Lake Placid, N.Y.). Data is expressed as a percent of control from which IC50 s are determined.

Data set [2] is described as follows: cytotoxicity, modified MTT assay (% viable cells). In kind it is cell-based, porcine. The conditions noted are these: pig, smooth muscle cells; fresh medium without serum, 24 h at 37° C.; no drug = 100% viable. The protocol: To distinguish cytotoxicity from the ability of a compound to prevent proliferation, the test compounds were examined using a commercial modification of the MTT assay. Briefly, cells were grown in 24 well plates to 70-80% confluency. The cells were serum deprived for 24-48 hours prior to initiation of the experimental protocol. To insure that the MTT assay monitored toxicity rather than proliferation, the cells were incubated with […] test compound in fresh medium without serum for 24 hours at 37° C. in a humidified CO2 incubator. Upon completion of the compound treatment, MTT indicator dye was added for 4 hours at 37° C. Cells were then solubilized and aliquots from each well were transferred to a 96-well plate for analysis. Absorbance at 570 nm wavelength with a reference wavelength of 630 nm was recorded using an ELISA plate reader. Results are reported as percent viable using no drug (100% viable) and pre-solubilization (0% viable) standards.
(In general: Tetrazolium dyes change colour on reduction, which living cells bring about.)

The mark [3] stands for this setting: human recombinant PDGF-AB stimulated, read-out: Porcine Smooth Muscle Cell Antiproliferation IC50 or % Inhibition at x Concentration, PDGF.
Where [4] appears, read: serum-stimulated, read-out: Porcine Smooth Muscle Cell Antiproliferation IC50 or % Inhibition at x Concentration, Serum.

In general, viability refers to the share of living cells, or the viability signal relative to a control. A lower viability goes with more harm to the cells. Take `CCn1c2ccccc2c2cc(/C=C(\C#N)c3cccnc3)ccc21` [Example 8, (Z)-3-(9-Ethyl-9H-carbazol-3-yl)-2-(pyridin-3-yl) acrylonitrile]: the IC50 in data set [1] (setting [3]) came out at 336 nM; in data set [1] (setting [4]), 355 nM. In data set [2], this compound had a viability at 24 h of 100%.
The matching figures for `N#C/C(=C\c1ccc2c(c1)OCCO2)c1c[nH]c2ncccc12` [Example 7, (Z)-3-(2,3-Dihydro-benzo[1,4]dioxin-6-yl)-2-(1H-pyrrolo-[2,3-b]pyridin-3-yl)-acrylonitrile]: 14800 nM, 1230 nM and 100%.
Take `N#C/C(=C\c1ccncc1)c1cccnc1` [Example 1, Z-2-(Pyridin-3yl)-3-(pyridin-4-yl)-acrylonitrile]: the IC50 in data set [1] (setting [3]) is 346 nM; in data set [1] (setting [4]) it was 1160 nM. In data set [2], this compound came in with a viability at 24 h of 100%.
Take `N#CC(=Cc1ccc[nH]1)c1cccnc1` [Example 9, 2-(Pyridin-3-yl)-3-(1H-pyrrol-2-yl)-acrylonitrile]: the IC50 in data set [1] (setting [4]) came to 92000 nM. The viability at 24 h in data set [2] is 84%.
For `N#CC(=Cc1c[nH]c2ncccc12)c1cccnc1` [Example 6, 2-(Pyridin-3-yl)-3-(1H-pyrrolo[2,3-b]pyridin-3-yl)-acrylonitrile], the IC50 is 900 nM in data set [1] (setting [3]) and 1180 nM in data set [1] (setting [4]). Also, in data set [2], the viability at 24 h is 100%.
Turning to `N#CC(=Cc1cccnc1)c1cccnc1` [Example 5, 2,3-Di-pyridin-3-yl-acrylonitrile], the IC50 in data set [1] (setting [4]) came to 96600 nM.
Consider `N#CC(=Cc1ccc2c(c1)OCCO2)c1cccnc1` [Example 3, 3-(2,3-Dihydro-benzo[1,4]dioxin-6-yl)-2-pyridin-3-yl-acrylonitrile], for which the IC50 in data set [1] (setting [3]) is 10500 nM; in data set [1] (setting [4]), 3800 to 11500 nM. The compound also gave a viability at 24 h in data set [2] of 86%.
For the compound `N#CC(=Cc1ccccn1)c1cccnc1` [Example 4, 2-Pyridin-3-yl-3-pyridin-2-yl-acrylonitrile], the IC50 in data set [1] (setting [4]) was 48300 nM. Moreover, in data set [2], the viability at 24 h stood at 92%.
Regarding `N#CC(=Cc1ccnc2ccccc12)c1cccnc1` [Example 2, 2-Pyridin-3-yl-3-quinolin-4-yl-acrylonitrile], in data set [1] (setting [4]), the IC50 worked out at 81000 nM.
